In patent US10676468B2, “N-(3-heteroarylaryl)-4-arylarylcarboxamides and analogs as hedgehog pathway inhibitors and use thereof” (IMPACT Therapeutics, Inc., priority 2012, dated 2020) one finds IC50 data, which are given here for 22 compounds.

Structures are written as SMILES. Structures can show the parent of a compound that is named as a salt.

Assay type in all cases: cell-based, mouse
For assay [1], the system named is Hedgehog Signaling Pathway. Nature of the assay: Gli-Luc reporter gene cell assay in C3H10T1/2/Gli-Luc cells stimulated with Shh. The note with it: 30 nM Shh, luciferase activity (RLU), read-out: IC50 values of compounds that inhibit Hh pathway. A digest of the protocol:
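IC50 from nonlinear fit of luciferase RLU versus log compound concentration. Stably transfected C3H10T1/2/Gli-Luc cells received a 7-point compound series alongside Shh (30 nM in the added medium) for 24 h at 37 °C in DMEM/10% FBS, then were lysed for luciferase readout.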
In general terms: A reporter such as luciferase makes a cellular process visible.

Assay [2] relates to Hedgehog Signaling Pathway. Nature of the assay: SHH-induced differentiation of C3H10T1/2 cells into osteoblastic cells, intracellular alkaline phosphatase activity. The note with it: 10 nM SHH-N, 5 days, alkaline phosphatase activity (OD405), read-out: IC50 values of compounds that inhibit Hh pathway. A digest of the protocol: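 Hedgehog pathway inhibition was taken as loss of SHH-driven osteoblastic differentiation. Test compound (10 nM–10 μM) plus SHH-N (10 nM) was applied to C3H10T1/2 cells for 5 days, then lysate phosphatase turnover was measured as the 30-min OD405 change at 37 °C. IC50 was fitted from activity versus log dose.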

Assay [3] concerns Hedgehog Signaling Pathway. Nature of the assay: SAG-induced differentiation of C3H10T1/2 cells into osteoblastic cells, intracellular alkaline phosphatase activity. The note with it: 1 μM SAG, 5 days, alkaline phosphatase activity (OD405), read-out: IC50 values of compounds that inhibit Hh pathway. The method in brief:
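Mouse C3H10T1/2 cells were induced with SAG and exposed to compound (10 μM to 1 nM) for 5 days at 37 °C. Cells were lysed in 0.2% Triton, and alkaline phosphatase activity was read as OD405 over 30 min at 37 °C in pH 9.8 substrate buffer. IC50 came from a non-linear fit of background-subtracted OD405 against log concentration.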

The mark [4] stands for this setting: Mus musculus, C3H 10T1/2, 120 h.

For orientation: IC50 means the point on the concentration scale where inhibition reaches its midpoint. Consider `C[C@@H]1CN(c2ccc(C(=O)Nc3ccc(Cl)c(-c4nc5ccccc5[nH]4)c3)c(Cl)n2)C[C@H](C)N1C` [Example 117, N-(3-(1H-benzo[d]imidazol-2-yl)-4-chlorophenyl)-2-chloro-6-((3S,5R)-3,4,5-trimethylpiperazin-1-yl)nicotinamide], for which the IC50 in assay [1] (Mus musculus, C3H 10T1/2, 24 h) was 1.2 nM; in assay [2] (setting [4]), 4.6 nM; in assay [3] (setting [4]) it was 27 nM.
With `C[C@@H]1CN(c2ccc(C(=O)Nc3ccc(Cl)c(-c4nc5ccccc5[nH]4)c3)c(Cl)c2)C[C@H](C)N1C` [Example 132, N-(3-(1H-benzo[d]imidazol-2-yl)-4-chlorophenyl)-2-chloro-4-((3S,5R)-3,4,5-trimethylpiperazin-1-yl)benzamide Dihydrochloride], the IC50 worked out at 0.74 nM in assay [1] (24 hours, Dihydrochloride); 0.53 nM in assay [2] (Dihydrochloride); 28 nM in assay [3] (Dihydrochloride).
For the compound `C[C@@H]1CN(c2ccc(C(=O)Nc3ccc(Cl)c(-c4cn5ccsc5n4)c3)c(Cl)c2)C[C@H](C)N1C` [Example 205, N-(3-(imidazo[2,1-b]thiazol-6-yl)-4-chlorophenyl)-2-chloro-4-((3S,5R)-3,4,5-trimethylpiperazin-1-yl)benzamide], the IC50 came to 29 nM in assay [1] (Mus musculus, C3H 10T1/2, 24 h); 94 nM in assay [2] (setting [4]); 250 nM in assay [3] (setting [4]).
As to `Cc1cc(N2C[C@@H](C)O[C@@H](C)C2)ncc1C(=O)Nc1ccc(Cl)c(-c2nc3ccccc3[nH]2)c1` [Example 91, N-(3-(1H-benzo[d]imidazol-2-yl)-4-chlorophenyl)-4-methyl-6-((2S,6R)-2,6-dimethylmorpholino)nicotinamide], the IC50 turned out to be 7.8 nM in assay [1] (Mus musculus, C3H 10T1/2, 24 h); 6.8 nM in assay [2] (setting [4]); 52 nM in assay [3] (setting [4]).
For `Cc1cc(-c2ccc(C(F)(F)F)cc2)ccc1C(=O)Nc1cnc(Cl)c(-c2nc3ccccc3[nH]2)c1` [Example 69, N-(5-(1H-benzo[d]imidazol-2-yl)-6-chloropyridin-3-yl)-3-methyl-4′-(trifluoromethyl)biphenyl-4-carboxamide], in that order: 4.2 nM, 0.55 nM and 33 nM.
Taken in the same sequence, the figures for `Cc1cc(N2C[C@@H](C)O[C@@H](C)C2)ccc1C(=O)Nc1cnc(Cl)c(-c2nc3ccccc3[nH]2)c1` [Example 83, N-(5-(1H-benzo[d]imidazol-2-yl)-6-chloropyridin-3-yl)-2-methyl-4-((2S,6R)-2,6-dimethylmorpholino)benzamide] were 6.3 nM, 9.2 nM and 43 nM.
For `C[C@@H]1CN(c2ccc(C(=O)Nc3ccc(Cl)c(-c4nc5ccccc5n4C)c3)c(Cl)c2)C[C@H](C)N1C` [Example 110, N-(3-(1-methyl-1H-benzo[d]imidazol-2-yl)-4-chlorophenyl)-2-chloro-4-((3S,5R)-3,4,5-trimethylpiperazin-1-yl)benzamide], the IC50 in assay [1] (Mus musculus, C3H 10T1/2, 24 h) was 0.57 nM; in assay [2] (setting [4]), 0.66 nM; in assay [3] (setting [4]) it was 28 nM.
Taken in the same sequence, the figures for `Cc1cc(N2C[C@@H](C)N(C)[C@@H](C)C2)ccc1C(=O)Nc1ccc(Cl)c(-c2ncc(-c3nccs3)[nH]2)c1` [Example 154, N-(3-(5-(thiazol-2-yl)-1H-imidazol-2-yl)-4-chlorophenyl)-2-methyl-4-((3S,5R)-3,4,5-trimethylpiperazin-1-yl)benzamide] were 6.7 nM, 22 nM and 178 nM.
`C[C@@H]1CN(c2ccc(C(=O)Nc3ccc(Cl)c(-c4ncccn4)c3)c(Cl)c2)C[C@H](C)N1C` [Example 209, N-(3-(pyrimidin-2-yl)-4-chlorophenyl)-2-chloro-4-((3S,5R)-3,4,5-trimethylpiperazin-1-yl)benzamide]: the IC50 in assay [1] (Mus musculus, C3H 10T1/2, 24 h) was above 10000 nM; in assay [2] (setting [4]) it was above 10000 nM; in assay [3] (setting [4]), 1800 nM.
Take `C[C@@H]1CN(c2ccc(C(=O)Nc3ccc(Cl)c(-c4nc5ccccc5[nH]4)c3)cc2)C[C@H](C)N1C` [Example 118, N-(3-(1H-benzo[d]imidazol-2-yl)-4-chlorophenyl)-4-((3S,5R)-3,4,5-trimethylpiperazin-1-yl)benzamide]: the IC50 was 5.1 nM in assay [1] (Mus musculus, C3H 10T1/2, 24 h); 13 nM in assay [2] (setting [4]); 260 nM in assay [3] (setting [4]).
Take `CC(C)N1[C@H](C)CN(c2ccc(C(=O)Nc3ccc(Cl)c(-c4ncc(-c5cccs5)[nH]4)c3)c(Cl)c2)C[C@@H]1C` [Example 159, N-(3-(5-(thiophen-2-yl)-1H-imidazol-2-yl)-4-chlorophenyl)-2-chloro-4-((3S,5R)-4-isopropyl-3,5-dimethylpiperazin-1-yl)benzamide]: the IC50 in assay [1] (Mus musculus, C3H 10T1/2, 24 h) worked out at 0.31 nM; in assay [2] (setting [4]) it was 0.36 nM; in assay [3] (setting [4]) it was 10 nM.
Consider `Cc1cc(C(=O)Nc2cnc(C)c(-c3nc4ccccc4[nH]3)c2)ccc1N1C[C@@H](C)N(C)[C@@H](C)C1` [Example 89, N-(5-(1H-benzo[d]imidazol-2-yl)-6-methylpyridin-3-yl)-3-methyl-4-((3S,5R)-3,4,5-trimethylpiperazin-1-yl)benzamide], for which the IC50 in assay [1] (Mus musculus, C3H 10T1/2, 24 h) was 21 nM; in assay [2] (setting [4]), 55 nM; in assay [3] (setting [4]), 381 nM.
As for `Cc1nc(N2C[C@@H](C)O[C@@H](C)C2)ccc1C(=O)Nc1cnc(Cl)c(-c2nc3ccccc3[nH]2)c1` [Example 84, N-(5-(1H-benzo[d]imidazol-2-yl)-6-chloropyridin-3-yl)-2-methyl-6-((2S,6R)-2,6-dimethylmorpholino)nicotinamide], the IC50 turned out to be 10 nM in assay [1] (Mus musculus, C3H 10T1/2, 24 h); 7.1 nM in assay [2] (setting [4]); 44 nM in assay [3] (setting [4]).
Turning to `CCN1[C@H](C)CN(c2ccc(C(=O)Nc3ccc(Cl)c(-c4nc5ccccc5[nH]4)c3)cn2)C[C@@H]1C` [Example 105, N-(3-(1H-benzo[d]imidazol-2-yl)-4-chlorophenyl)-6-((3S,5R)-4-ethyl-3,5-dimethylpiperazin-1-yl)nicotinamide], the IC50 came out at 1.1 nM in assay [1] (Mus musculus, C3H 10T1/2, 24 h); 2.2 nM in assay [2] (setting [4]); 58 nM in assay [3] (setting [4]).
As to `C[C@@H]1CN(c2ccc(C(=O)Nc3cnc(Cl)c(-c4nc5ccccc5[nH]4)c3)cn2)C[C@H](C)N1C` [Example 86, N-(5-(1H-benzo[d]imidazol-2-yl)-6-chloropyridin-3-yl)-6-((3S,5R)-3,4,5-trimethylpiperazin-1-yl)nicotinamide], the IC50 in assay [1] (Mus musculus, C3H 10T1/2, 24 h) is 0.94 nM; in assay [2] (setting [4]), 1.7 nM; in assay [3] (setting [4]), 40 nM.
Taken in the same sequence, the figures for `Cc1cc(N2C[C@@H](C)N(C)[C@@H](C)C2)ccc1C(=O)Nc1ccc(Cl)c(-c2nc3ccccc3o2)c1` [Example 206, N-(3-(benzo[d]oxazol-2-yl)-4-chlorophenyl)-2-methyl-4-((3S,5R)-3,4,5-trimethylpiperazin-1-yl)benzamide] were 27 nM, 46 nM and 244 nM.
As for `Cc1ccc(NC(=O)c2ccc(N3C[C@@H](C)N(C)[C@@H](C)C3)cc2Cl)cc1-c1nc2ccc(Cl)cc2[nH]1` [Example 113, N-(3-(6-chloro-1H-benzo[d]imidazol-2-yl)-4-methylphenyl)-2-chloro-4-((3S,5R)-3,4,5-trimethylpiperazin-1-yl)benzamide], the IC50 in assay [1] (Mus musculus, C3H 10T1/2, 24 h) was 27 nM; in assay [2] (setting [4]) it was above 10000 nM; in assay [3] (setting [4]) it was 1040 nM.
Taken in the same sequence, the figures for `O=C(Nc1ccc(Cl)c(-c2nc3ccccc3[nH]2)c1)c1ccc(-c2ccc(C(F)(F)F)cc2)cc1Cl` [Example 18, N-(3-(1H-benzo[d]imidazol-2-yl)-4-chlorophenyl)-3-chloro-4′-(trifluoromethyl)biphenyl-4-carboxamide] were 8.2 nM, 3.7 nM and 60 nM.
Taken in the same sequence, the figures for `CS(=O)(=O)c1ccc(C(=O)Nc2ccc(Cl)c(-c3ccccn3)c2)c(Cl)c1` [GDC-0449, reference compound] were 43 nM, 38 nM and 108 nM.
Consider `Cc1cc(-c2ccc(C#N)cc2)ccc1C(=O)Nc1cnc(Cl)c(-c2nc3ccccc3[nH]2)c1` [Example 70, N-(5-(1H-benzo[d]imidazol-2-yl)-6-chloropyridin-3-yl)-3-methyl-4′-cyanobiphenyl-4-carboxamide], for which the IC50 in assay [1] (Mus musculus, C3H 10T1/2, 24 h) stood at 1.7 nM; in assay [2] (setting [4]) it was 2.8 nM; in assay [3] (setting [4]) it was 34 nM.
In the case of `C[C@@H]1CN(c2ccc(C(=O)Nc3ccc(Cl)c(-c4ncc(-c5ccc(Cl)s5)[nH]4)c3)cc2Cl)C[C@H](C)N1C` [Example 137, N-(3-(5-(5-chlorothiophen-2-yl)-1H-imidazol-2-yl)-4-chlorophenyl)-3-chloro-4-((3S,5R)-3,4,5-trimethylpiperazin-1-yl)benzamide], the IC50 is 2.3 nM in assay [1] (Mus musculus, C3H 10T1/2, 24 h); 15 nM in assay [2] (setting [4]); 51 nM in assay [3] (setting [4]).
Taken in the same sequence, the figures for `Cc1cc(N2C[C@@H](C)N(C)[C@@H](C)C2)ccc1C(=O)Nc1ccc(Cl)c(-c2ncc(C3CCC3)[nH]2)c1` [Example 181, N-(3-(5-cyclobutyl-1H-imidazol-2-yl)-4-chlorophenyl)-2-methyl-4-((3S,5R)-3,4,5-trimethylpiperazin-1-yl)benzamide] were 3.2 nM, 19 nM and 70 nM.
